# Test results: ChEMBL document CHEMBL1129156, “Oreganic acid: a potent novel inhibitor of ras farnesyl-protein transferase from an endophytic fungus” (Bioorg Med Chem Lett, 1996)
# The source made the active and inactive calls.
# Columns and labels:
# Assay type in all cases: protein-complex assay
# [1] = target: T1, Protein farnesyltransferase (Homo sapiens, UniProt P49354+P49356); assay: In vitro inhibition of human recombinant Protein farnesyltransferase at 20 uM (Inactive)
# [2] = target: T1, Protein farnesyltransferase; assay: In vitro inhibition of human recombinant Protein farnesyltransferase
# [3] = target: T1, Protein farnesyltransferase; assay: In vitro inhibition of human recombinant Protein farnesyltransferase with respect to FPP
Activity [1],IC50 [2],Ki [3],SMILES
inactive,,,COC(=O)C/C(C(=O)OC)=C(/CCCCCCCCCCCCCCCCO)C(=O)OC
,10.6 nM,,COC(=O)C/C(C(=O)OC)=C(/CCCCCCCCCCCCCCCCOS(=O)(=O)O)C(=O)OC
,3.3 nM,,O=C(O)C/C(C(=O)O)=C(/CCCCCCCCCCCCCCCCO)C(=O)O
,14 nM,4.5 nM,O=C(O)C/C(C(=O)O)=C(/CCCCCCCCCCCCCCCCOS(=O)(=O)O)C(=O)O
